Data: patent US8778975B2, “Helicobacter pylori eradicating agent having inhibitory activity on gastric acid secretion” (Link Geonomics, Inc., priority 2006, dated 2014)
Converted amounts (≈) assume the structure as drawn. Read-outs that look alike come from different tables or passages of the source.

Columns and labels:
[1] = system: Helicobacter pylori bacteria (ATCC 43504); assay: Antiulcer action and bacteria eradicating action in Helicobacter pylori-infected Mongolian gerbils; type: in vivo; settings: for Number of Bacteria (average) (log CFU): gastric mucosa
Method: Mongolian gerbils were experimentally infected with Helicobacter pylori bacteria, and the antiulcer action and the Helicobacter pylori bacteria eradicating action of the compounds of the present invention were tested.
Male Mongolian gerbils (30 to 40 g), five animals in each group, were orally inoculated with Helicobacter pylori bacteria (ATCC 43504) at 1.6×10^7 CFU/0.5 ml/mouse, and bred for one week, and then drug was administered two times a day for two weeks. Thereafter, the […] were bred for three weeks, and then the rats were fasted for 18 hours and subjected to abdominal section, followed by autopsy. The severity of gastric ulcer, the number of Helicobacter pylori bacteria in the gastric mucosa, and the antibody titer were measured.

[2] = Stability test in acidic hydrochloric acid solution (pH 2), residual ratio by HPLC; type: physicochemical; settings: for Residual ratio at pH 2: pH 2 HCl, 37° C.; for Stability in acid (residual ratio at pH = 2: %): Table 8 summary, time not stated
Method: A test for the stability of thioether compounds (hereinafter, referred to SH-form) and sulfoxide compounds (hereinafter, referred to SO-form) at pH 2.0 was carried out. (Method) Each of the specimens produced in Examples 1 to 3 and Reference Examples 6 to 8 (sulfinyl products of Examples 1 to 3) was maintained in a solution adjusted to pH 2 with 0.5 or 1.0 mmol/L HCl (37° C.) for a predetermined time period. Subsequently, the solution was adjusted to pH 8 with triethylamine, and then an HPLC analysis was performed to calculate the residual ratio.

[3] = system: Helicobacter pylori standard strain ATCC 43504; assay: Antibacterial potency test (MIC), Columbia agar medium, Pharmacological Test Example 1; type: cell-based
Method: A test was conducted to see whether there is a difference in the anti-Helicobacter pylori activity depending on the number of carbon atoms of the linear alkyl group for a substituent at the 4-position of the pyridine ring.
For the bacterium Helicobacter pylori, a standard strain ATCC 43504 was used to perform in vitro tests in Columbia agar medium. Each of the specimens was dissolved in a 1% DMSO solution, and the bacteria were cultured at 37° C. and pH 7.0 for 3 days. On the 4th day, the minimum growth inhibitory concentration (MIC, μg/ml) was determined.

gastric acid secretion = assay: Gastric acid secretion inhibiting action, pylorus ligation in rats; type: in vivo, SD rats; settings: 30 mg/kg to the duodenum, 4 hours after pylorus ligation, average
Method: The gastric acid secretion inhibiting action of the compounds of the present invention was tested. A group of five animals of male SD rats (about 200 g) were used, and the medicaments were respectively dissolved in 0.5% CMC and were all administered to the duodenum respectively at 30 mg/kg. The rats were fasted overnight from the day before the administration of the test substance to the point of administration, and pylorus ligation was performed.

[4] = system: Helicobacter pylori standard strains ATCC 43504, ATCC 43629, ATCC 43570 and clinically separated strains; assay: Anti-Helicobacter pylori activity (MIC), standard and clinically separated strains, Pharmacological Test Example 2; type: cell-based
Method: For the bacterium Helicobacter pylori, standard strains ATCC 43504, ATCC 43629 and ATCC 43570 were used to perform in vitro tests in Columbia agar medium. The bacteria were cultured at 37° C. and pH 7.0 for 3 days. On the 4th day, the minimum growth inhibitory concentration (MIC, μg/ml) was determined. Each of the specimens was dissolved in a 1% DMSO solution. Furthermore, amoxicillin and clarithromycin were used as control drugs of antibacterial substance. Further, the compound described in the article of Thomas C. Kuehler (J. Med.

[5] = Helicobacter pylori, ATCC43504, Table 8, amount of administration (mg) 30, read-out: HP eradication based on Mongolian gerbil infection model: Eradication rate (%)
[6] = ATCC43504, 72 h, ATCC 43504, 37° C., pH 7.0, 3 days, read-out: MIC
[7] = ATCC43504, Table 8 summary, strain not stated, read-out: Anti-HP activity (MIC: μg/mL)
[8] = 30 mg/kg, two times a day for two weeks
[9] = Helicobacter pylori, ATCC43504, 336 h, 30 mg/kg, two times a day for two weeks, read-out: Eradication rate (%)
[10] = Clinically separated strain PT1045482
[11] = Clinically separated strain PT1045483
[12] = Clinically separated strain PT1045484

SMILES: CCCCCOc1ccnc(C[S+]([O-])c2nc3ccccc3[nH]2)c1C (racemic) [Reference Example 6, (±)-2-[(4-n-pentyloxy-3-methylpyridin-2-yl)-methylsulfinyl]-1H-benzimidazole]
- responders at 30 mg/kg [1, 5]: 0%
- Residual ratio at pH 2 ([2]; 0 min): 100%
- Residual ratio at pH 2 ([2]; 30 min): 0%
- Residual ratio at pH 2 ([2]; 2 hours): 0%
- Stability in acid (residual ratio at pH = 2: %) [2]: 0%
- MIC [3, 6]: 3 µg/mL (≈ 8.39 µM)
- MIC [3, 7]: 3 µg/mL (≈ 8.39 µM)

SMILES: CCCCCCOc1ccnc(C[S+]([O-])c2nc3ccccc3[nH]2)c1C (racemic) [Reference Example 7, (±)-2-[(4-n-hexyloxy-3-methylpyridin-2-yl)-methylsulfinyl]-1H-benzimidazole]
- responders at 30 mg/kg [1, 5]: 0%
- Residual ratio at pH 2 ([2]; 0 min): 100%
- Residual ratio at pH 2 ([2]; 30 min): 0%
- Residual ratio at pH 2 ([2]; 2 hours): 0%
- Stability in acid (residual ratio at pH = 2: %) [2]: 0%
- MIC [3, 6]: 3 µg/mL (≈ 8.08 µM)
- MIC [3, 7]: 3 µg/mL (≈ 8.08 µM)

SMILES: CCCCCCCOc1ccnc(C[S+]([O-])c2nc3ccccc3[nH]2)c1C (racemic) [Reference Example 8, (±)-2-[(4-n-heptyloxy-3-methylpyridin-2-yl)-methylsulfinyl]-1H-benzimidazole]
- responders at 30 mg/kg [1, 5]: 0%
- Residual ratio at pH 2 ([2]; 0 min): 100%
- Residual ratio at pH 2 ([2]; 30 min): 0%
- Residual ratio at pH 2 ([2]; 2 hours): 0%
- Stability in acid (residual ratio at pH = 2: %) [2]: 0%
- MIC [3, 6]: 3 µg/mL (≈ 7.78 µM)
- MIC [3, 7]: 3 µg/mL (≈ 7.78 µM)

SMILES: CN/C(=N/CCSCc1nc[nH]c1C)NC#N [Cimetidine]
- Gastric acid secretion inhibiting action: Amount of gastric acid (gastric acid secretion): 54%
- Gastric acid secretion inhibiting action: Amount of gastric acid secretion (gastric acid secretion): 74%
- Gastric acid secretion inhibiting action: Total acidity (gastric acid secretion): 41%

SMILES: Cc1c(OCC(C)C)ccnc1CSc1nc2ccccc2[nH]1 [Comparative Example 1, 2-[(4-isobutoxy-3-methylpyridin-2-yl)methylthio]-1H-benzimidazole]
- Antibody titer (average) ([1]; 30 mg/kg): 0.49
- Number of Bacteria (average) (log CFU) ([1]; 30 mg/kg): 6.3 log CFU
- Number of Ulcers discovered [1, 8]: 5/5
- responders at 30 mg/kg [1, 9]: 0%
- MIC [4, 10]: 3 µg/mL (≈ 9.16 µM)
- MIC [4, 11]: 3 µg/mL (≈ 9.16 µM)
- MIC [4, 12]: 1 µg/mL (≈ 3.05 µM)
- MIC ([4]; Standard strain ATCC 43504): 3 µg/mL (≈ 9.16 µM)
- MIC ([4]; Standard strain ATCC 43570): 1 µg/mL (≈ 3.05 µM)
- MIC ([4]; Standard strain ATCC 43629): 1 µg/mL (≈ 3.05 µM)

SMILES: CC(C)COc1ccnc(CSc2nc3ccccc3[nH]2)c1 [Comparative Example 2, 2-[(4-isobutoxy-pyridin-2-yl)methylthio]-1H-benzimidazole]
- Antibody titer (average) ([1]; 30 mg/kg): 0.55
- Number of Bacteria (average) (log CFU) ([1]; 30 mg/kg): 5.9 log CFU
- Number of Ulcers discovered [1, 8]: 5/5
- responders at 30 mg/kg [1, 9]: 0%
- MIC [4, 10]: 10 µg/mL (≈ 31.9 µM)
- MIC [4, 11]: 10 µg/mL (≈ 31.9 µM)
- MIC [4, 12]: 10 µg/mL (≈ 31.9 µM)
- MIC ([4]; Standard strain ATCC 43504): 10 µg/mL (≈ 31.9 µM)
- MIC ([4]; Standard strain ATCC 43570): 5 µg/mL (≈ 16 µM)
- MIC ([4]; Standard strain ATCC 43629): 10 µg/mL (≈ 31.9 µM)

SMILES: CCCCOc1ccnc(CSc2nc3ccccc3[nH]2)c1C [Example 4, 2-[(4-n-butoxy-3-methylpyridin-2-yl)-methylthio]-1H-benzimidazole]
- MIC [3, 6]: 0.3 µg/mL (≈ 0.916 µM)

SMILES: CCCCCCCCOc1ccnc(CSc2nc3ccccc3[nH]2)c1C [Example 5, 2-[(4-n-octyloxy-3-methylpyridin-2-yl)-methylthio]-1H-benzimidazole]
- MIC [3, 6]: 0.3 µg/mL (≈ 0.782 µM)

SMILES: Cc1c(OCC(F)(F)F)ccnc1C[S+]([O-])c1nc2ccccc2[nH]1 (stereo not shown) [LAZ, Lansoprazole]
- responders at 30 mg/kg [1, 5]: 0%
- Residual ratio at pH 2 ([2]; 0 min): 100%
- Residual ratio at pH 2 ([2]; 30 min): 0%
- Residual ratio at pH 2 ([2]; 2 hours): 0%
- Stability in acid (residual ratio at pH = 2: %) [2]: 0%
- MIC [3, 7]: 16 µg/mL (≈ 43.3 µM)

SMILES: COc1ccc2[nH]c([S+]([O-])Cc3ncc(C)c(OC)c3C)nc2c1 (stereo not shown) [OMZ, Omeprazole]
- Antibody titer (average) ([1]; 10 mg/kg): 0.52
- Number of Bacteria (average) (log CFU) ([1]; 10 mg/kg): 6.0 log CFU
- Number of Ulcers discovered ([1]; 10 mg/kg, two times a day for two weeks): 5/5
- responders at 10 mg/kg ([1]; Helicobacter pylori, ATCC43504, 336 h, 10 mg/kg, two times a day for two weeks, read-out: Eradication rate (%)): 0%
- responders at 30 mg/kg [1, 5]: 0%
- Stability in acid (residual ratio at pH = 2: %) [2]: 0%
- MIC [3, 7]: 128 µg/mL (≈ 371 µM)

SMILES: COCCCOc1ccnc(C[S+]([O-])c2nc3ccccc3[nH]2)c1C (stereo not shown) [RAZ, Rabeprazole]
- responders at 30 mg/kg [1, 5]: 0%
- Stability in acid (residual ratio at pH = 2: %) [2]: 0%
- MIC [3, 7]: 8 µg/mL (≈ 22.3 µM)

SMILES: COc1ccnc(CSc2nc3ccccc3[nH]2)c1C [Reference Example 1, 2-[(4-methoxy-3-methylpyridin-2-yl)-methylthio]-1H-benzimidazole]
- MIC [3, 6]: 3 µg/mL (≈ 10.5 µM)

SMILES: CCOc1ccnc(CSc2nc3ccccc3[nH]2)c1C [Reference Example 2, 2-[(4-ethoxy-3-methylpyridin-2-yl)-methylthio]-1H-benzimidazole]
- MIC [3, 6]: 1 µg/mL (≈ 3.34 µM)

SMILES: CCCOc1ccnc(CSc2nc3ccccc3[nH]2)c1C [Reference Example 3, 2-[(4-n-propoxy-3-methylpyridin-2-yl)-methylthio]-1H-benzimidazole]
- MIC [3, 6]: 1 µg/mL (≈ 3.19 µM)

SMILES: CCCCCCCCCOc1ccnc(CSc2nc3ccccc3[nH]2)c1C [Reference Example 4, 2-[(4-n-nonyloxy-3-methylpyridin-2-yl)-methylthio]-1H-benzimidazole]
- MIC [3, 6]: 1 µg/mL (≈ 2.52 µM)

SMILES: CCCCCCCCCCOc1ccnc(CSc2nc3ccccc3[nH]2)c1C [Reference Example 5, 2-[(4-n-decyloxy-3-methylpyridin-2-yl)-methylthio]-1H-benzimidazole]
- MIC [3, 6]: 3 µg/mL (≈ 7.29 µM)
